Laboratory results reported in ChEMBL document CHEMBL1201862, “PubChem BioAssay data set” (2004).
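Following 48 hours of exposure in 96-well plates, responses at five concentrations were used to interpolate endpoints linearly. Here, GI50 denotes the concentration required for 50% inhibition of growth.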 Activity calls are given as the source filed them. Rule as the data show it: active = GI50 up to about 1.1 µM and inactive = higher.

Tests used:
Assay in all cases: NCI anticancer screen, dose series, 48 h
[1] = tested on: K562
[2] = tested on: OVCAR-5
[3] = tested on: MDA-MB-231
[4] = tested on: A549
[5] = tested on: PC-3
[6] = tested on: MDA-N
[7] = tested on: SF-268
[8] = tested on: OVCAR-3
[9] = tested on: SNB-19
[10] = tested on: SK-MEL-2
[11] = tested on: SF-539
[12] = tested on: SK-MEL-28
[13] = tested on: NCI/ADR-RES
[14] = tested on: HT-29
[15] = tested on: DU-145
[16] = tested on: HCC 2998
[17] = tested on: SK-OV-3
[18] = tested on: HOP-62
[19] = tested on: NCI-H460
[20] = tested on: T47D
[21] = tested on: NCI-H522
[22] = tested on: KM12
[23] = tested on: A498
[24] = tested on: NCI-H226
[25] = tested on: TK-10
[26] = tested on: Hs-578T
[27] = tested on: MOLT-4
[28] = tested on: M14
[29] = tested on: MCF7
[30] = tested on: OVCAR-4
[31] = tested on: CAKI-1
[32] = tested on: CCRF-CEM
[33] = tested on: RXF 393
[34] = tested on: LOX IMVI
[35] = tested on: 786-0
[36] = tested on: HCT-15
[37] = tested on: SK-MEL-5
[38] = tested on: NCI-H23
[39] = tested on: HCT-116
[40] = tested on: Malme-3M
[41] = tested on: IGROV-1
[42] = tested on: SNB-75
[43] = tested on: UO-31
[44] = tested on: U-251
[45] = tested on: SW-620
[46] = tested on: ACHN
[47] = tested on: COLO 205
[48] = tested on: UACC-257
[49] = tested on: OVCAR-8
[50] = tested on: SR
[51] = tested on: EKVX
[52] = tested on: SN12C
[53] = tested on: MDA-MB-435
[54] = tested on: HOP-92
[55] = tested on: HL-60
[56] = tested on: UACC-62
[57] = tested on: SF-295
[58] = tested on: RPMI-8226
[59] = tested on: BT-549

Measured: GI50

Cc1ccc(NC(=S)N/N=C2\C(=O)Nc3ccccc32)cc1
inactive: [1] > 100 µM | [2] > 100 µM | [3] > 100 µM | [4] > 100 µM | [5] > 100 µM | [6] > 100 µM | [7] 1.69 µM | [8] > 100 µM | [9] > 100 µM | [10] 97.7 µM | [11] > 100 µM | [12] 4.76 µM | [13] 51.3 µM | [14] > 100 µM | [15] 4.43 µM | [16] > 100 µM | [17] > 100 µM | [18] > 100 µM | [19] 83 µM | [20] > 100 µM | [21] > 100 µM | [22] > 100 µM | [23] 51.6 µM | [24] 92.3 µM | [25] > 100 µM | [26] > 100 µM | [27] > 100 µM | [28] 94 µM | [29] > 100 µM | [30] > 100 µM | [31] > 100 µM | [32] 72.1 µM | [33] 84.7 µM | [34] 66.5 µM | [35] > 100 µM | [37] 59.7 µM | [38] > 100 µM | [39] > 100 µM | [40] > 100 µM | [41] 84.7 µM | [42] > 100 µM | [43] 78.5 µM | [44] > 100 µM | [45] > 100 µM | [46] 61.5 µM | [47] > 100 µM | [48] > 100 µM | [49] > 100 µM | [50] 87.7 µM | [51] 75.9 µM | [52] > 100 µM | [53] > 100 µM | [54] > 100 µM | [55] > 100 µM | [56] > 100 µM | [57] 49.9 µM | [58] > 100 µM
> 100 µM: [36]

CC(C)(C)CC(C)(C)N/C(N)=N/O
inactive: [1] 28.8 µM | [2] > 100 µM | [3] > 100 µM | [4] > 100 µM | [5] 15.1 µM | [6] > 100 µM | [7] > 89.3 µM | [8] 22.2 µM | [9] > 100 µM | [10] > 100 µM | [11] > 60.8 µM | [12] > 100 µM | [13] 97.3 µM | [14] > 100 µM | [15] > 100 µM | [16] > 100 µM | [17] 24.1 µM | [18] > 100 µM | [19] > 83.2 µM | [20] > 32.7 µM | [21] > 100 µM | [22] > 100 µM | [23] > 22.6 µM | [24] 58.5 µM | [25] > 48.5 µM | [26] 15 µM | [27] > 100 µM | [28] > 100 µM | [29] 8.79 µM | [30] > 37.4 µM | [31] > 100 µM | [32] > 100 µM | [33] > 100 µM | [34] > 100 µM | [35] > 100 µM | [37] 51.8 µM | [38] > 91 µM | [39] 9.71 µM | [40] > 100 µM | [41] > 86.7 µM | [42] > 86.5 µM | [43] > 21.7 µM | [44] > 100 µM | [45] > 100 µM | [46] 6.71 µM | [47] > 100 µM | [48] 41.4 µM | [49] > 80 µM | [50] > 81.5 µM | [51] > 89.5 µM | [52] > 100 µM | [53] > 100 µM | [54] 20.3 µM | [55] > 55.7 µM | [56] > 100 µM | [57] > 100 µM | [58] > 100 µM
56.1 µM: [36]

NCCC(=O)N[C@@H](Cc1cc(O)c(O)c(SCC(NC(=O)CC[C@H](N)C(=O)O)C(=O)NCC(=O)O)c1)C(=O)O (some centres undefined)
inactive: [1] > 50 µM | [2] > 50 µM | [3] > 50 µM | [4] > 50 µM | [5] > 50 µM | [6] > 50 µM | [7] > 50 µM | [8] > 50 µM | [9] > 50 µM | [10] > 50 µM | [12] > 50 µM | [13] > 50 µM | [14] > 50 µM | [15] > 50 µM | [16] > 50 µM | [17] > 50 µM | [18] 34.4 µM | [19] > 50 µM | [21] > 50 µM | [22] > 50 µM | [23] > 50 µM | [24] > 50 µM | [25] > 50 µM | [27] > 50 µM | [28] > 50 µM | [29] > 50 µM | [59] > 50 µM | [30] > 50 µM | [31] > 50 µM | [33] > 50 µM | [35] > 50 µM | [38] > 50 µM | [39] > 50 µM | [40] > 50 µM | [41] > 50 µM | [42] > 50 µM | [43] > 50 µM | [44] > 50 µM | [45] > 50 µM | [46] > 50 µM | [47] > 50 µM | [48] > 50 µM | [51] > 50 µM | [52] > 50 µM | [53] > 50 µM | [54] > 50 µM | [56] > 50 µM | [57] > 50 µM | [58] > 50 µM
> 50 µM: [36]

O=c1[nH]c(Nc2nc3ccccc3[nH]2)nc2c1CCC2
> 100 µM: [36]
inactive: [1] > 100 µM | [2] > 100 µM | [3] 14.8 µM | [4] > 100 µM | [5] > 100 µM | [6] > 100 µM | [7] 43.6 µM | [8] > 100 µM | [9] > 100 µM | [10] > 100 µM | [11] 42.7 µM | [12] 82 µM | [13] > 100 µM | [14] > 100 µM | [15] > 100 µM | [16] > 100 µM | [17] 41.8 µM | [18] 49.9 µM | [19] > 100 µM | [21] > 100 µM | [23] > 100 µM | [24] 63.1 µM | [25] > 100 µM | [26] 22.6 µM | [28] > 100 µM | [29] > 100 µM | [59] 35.5 µM | [30] 90.2 µM | [31] > 100 µM | [32] > 100 µM | [33] 96.4 µM | [34] > 100 µM | [35] 44.7 µM | [37] > 100 µM | [38] 74.3 µM | [39] > 100 µM | [40] > 100 µM | [41] > 100 µM | [42] 30 µM | [43] > 100 µM | [44] 64 µM | [45] > 100 µM | [46] > 100 µM | [47] > 100 µM | [48] > 100 µM | [49] 42.6 µM | [50] 28 µM | [52] > 100 µM | [53] > 100 µM | [54] 30.8 µM | [55] > 100 µM | [56] > 100 µM | [57] 76.9 µM

Cc1ccc(-n2cnc3c(N/N=C4\SCC(=O)N4c4ccccc4)ncnc32)cc1
2.3 µM: [36]
active: [22] 1.07 µM | [32] 0.437 µM | [58] 0.597 µM
inactive: [1] 1.29 µM | [2] 12.2 µM | [3] 3.3 µM | [4] 11.9 µM | [5] 3.3 µM | [7] 4.88 µM | [8] 3.13 µM | [9] 11.7 µM | [10] 2.31 µM | [11] 1.87 µM | [12] 2.95 µM | [13] 8.36 µM | [14] 3.44 µM | [15] 4.37 µM | [17] 14.6 µM | [18] 15.2 µM | [19] 2.9 µM | [20] 3.97 µM | [21] 3.52 µM | [23] 14.2 µM | [24] 4.02 µM | [25] 3.63 µM | [26] 3.85 µM | [27] 1.82 µM | [28] 3.66 µM | [59] 3.85 µM | [30] 8.75 µM | [31] 6.01 µM | [33] 2.33 µM | [34] 2.54 µM | [35] 3.15 µM | [37] 3.9 µM | [38] 3.37 µM | [39] 2.63 µM | [40] 4.39 µM | [41] 4 µM | [43] 1.15 µM | [44] 4.72 µM | [45] 4.01 µM | [46] 5.78 µM | [47] 4.98 µM | [48] 3.87 µM | [49] 3.27 µM | [51] 14.8 µM | [52] 2.97 µM | [53] 2.02 µM | [54] 2.66 µM | [55] 1.41 µM | [56] 4.37 µM | [57] 13.3 µM
